Data taken from patent EP0103877A1, “Phosphate derivatives, process for preparation thereof and pharmaceutical compositions of the same” (FUJISAWA PHARMACEUTICAL CO., LTD., priority 1982, dated 1984).

System: Fibrosarcoma Meth A
Test: Anti-tumor activity against Fibrosarcoma Meth A in mice (mean survival time, T/C)
Assay type: in vivo
Conditions: T/C x 100 of mean survival time (medicated vs control group); female BALB/c mice inoculated intrapleurally with 5 x 10^5 Meth A cells; compound injected into pleural cavity, 100 pg/0.05 ml/mouse three times (before 14 days, after 1 hour and after 3 days of tumor implantation)
Method: Groups of eight female BALB/c mice, aged 8-9 weeks and weighing 18.0-22.5 g were used.
Fibrosarcoma Meth A (hereinafter referred to as Meth A) was successively transferred every 7 days into BALB/c mice by intraperitoneal inoculation of the ascites cells thereof and the Meth A in the ascites cells as harvested 6 or 7 days after the inoculation was used as tumor cells.
Each of the BALB/c mice was inoculated intrapleurally with 5 x 10^5 Meth A cells in 0.1 ml Hanks solution.
Test compound was dissolved in phosphate buffer saline solution, and was injected into pleural cavity to each of the mice in doses of 100 pg/0.05 ml/mouse three times, i.e. before 14 days, after 1 hour and after 3 days of tumor implantation.
The control group was given with a vehicle alone in the same way.
The antitumor activity of the test compound was estimated by comparing mean survival time of the two groups. • T : Mean survival time of the medicated group • C : Mean survival time of the control group

Structure (SMILES)	Anti-tumor activity *a (%)
CCCCCCCCCCCCCCCCCCO[C@H]1[C@@H](O)[C@H](OC)O[C@@H]1COP(=O)([O-])OCC[N+](C)(C)C [Ex 6-(7), Methyl 3-O-octadecyl-β-D-ribofuranoside 5-(choline phosphate)]	383
CCCCCCCCCCCCCCCCCCOCC(COP(=O)([O-])OCC[N+](C)(C)C)OC (racemic) [Control Compound, (rac)-1-O-Octadecyl-2-0-methyl-glycerol-3-phosphorylcholine, reference compound]	302.8
CCCCCCCCCCCCCCCCCCO[C@@H]1[C@@H](OC)[C@@H](OC)O[C@@H]1COP(=O)([O-])OCC[N+](C)(C)C [Ex 4-(3), Methyl 2-0-methyl-3-0-octadecyl-a-D-xylofuranoside 5-(choline phosphate)]	408
